From patent US9181265B2, “Substituted 2,3-dihydro-1H-benzo[a]pyrano[2,3-c]phenazines as anti-angiogenic and anti-cancer agents” (UNIVERSITE CATHOLIQUE DE LOUVAIN, priority 2010, dated 2015)
Read-outs that look alike come from different tables or passages of the source. Marks after values point to notes of the source that are not given here.

Legend:
LoVo = assay: MTT test of overall cell growth, LoVo colorectal cancer cells, normoxia or hypoxia; assay type: cell-based, human; conditions: for IC50: Homo sapiens; for Selectivity: IC50 (normoxia)/IC50 (hypoxia 1% O2), if u.t.d., ratio of activity at 100 μM
Experimental: (§1) MTT tests were performed in order to rapidly, i.e. within 3 days, measure the effect of compounds of this invention on the overall cell growth. The test measured the number of metabolically active living cells that were able to transform the yellow product 3-(4,5-dimethylthiazol-2-yl)-2,5-diphenyl tetrazolium bromide (herein referred as MTT) into the blue product formazan dye by mitochondrial reduction. The amount of formazan obtained at the end of the experiment, measured by means of a spectrophotometer (Plate Reader Victor X4 Microplate reader (Perkin Elmer), is directly proportional to the number of living cells. Optical density determination thus enabled a quantitative measurement of the effect of the investigated compounds under control conditions (normoxia) as compared to the hypoxic conditions (0.1 or 1% O2) and/or untreated conditions.
(§2) Human umbilical vein endothelial cells (HUVEC) and six human cancer cell lines were used in the MTT tests. These cancer cell lines cover five histological cancer types including cervix (SiHa), breast (MCF-7 and MDA-MB231), prostate (PC3), glioma (U373), and colorectal (LoVo) cancers.
(§3) To perform the assay, cells were allowed to grow in 96-well microplates with a flat bottom following addition of an amount of 100 μl of cell suspension per well with 4,500 cells/well. Each cell line was seeded in its appropriate culture medium. HUVEC were cultured in a specific endothelial cell growth medium (ECACC, Sigma); SiHa cells in Glutamax-containing DMEM with 4.5 g/1 glucose (Invitrogen) supplemented with 10% Foetal Bovine Serum (PAA) and 1% penicillin+streptomycin mix (Invitrogen); MCF-7, MDA-MB-231, PC3, and LoVo cells in Glutamax-containing RPMI supplemented with 10% Foetal Bovine Serum (PAA) and 1% penicillin+streptomycin mix (Invitrogen) and U373 cells in Glutamax-containing DMEM (Invitrogen) with 5% Foetal Bovine Serum (PAA) and 1% penicillin+streptomycin mix (Invitrogen).
(§4) The detailed experimental procedure was the following: after a 24-hour period of incubation at 37° C., the culture medium was replaced by 100 μl of fresh medium in which the tested compound was previously dissolved, at the following concentrations: 10^−8 M, 5.10^−8, 10^−7, 5.10^−7, 10^−6, 5.10^−6, 10^−5, 5.10^−5 and 10^−[…]. Each experiment was performed in sestuplicates (6 times).
(§5) Cells were then incubated under normoxia in a Binder incubator (the O2 level corresponding to the concentration in the ambient air), or in a Ruskin hypoxia workstation under either 0.1% O2 (v/v) or 1% O2 (v/v). Under both conditions, the atmosphere was humidified and the CO2 concentration was fixed at 5 vol. %.
(§6) After 72 hours of incubation at 37° C. under normoxic or hypoxic conditions, with or without the compound to be tested, the medium was replaced by 100 μl of HBSS (without phenol red) containing MTT at a concentration of 0.5 or 1 mg/ml. The micro-wells were subsequently incubated during 3 hours and a half at 37° C. and centrifuged at 1300 rpm during 10 minutes. Medium was removed and formazan crystals formed were dissolved in 100 μl DMSO. The micro-wells were shaken for 5 minutes and read on a spectrophotometer at wavelengths of 570 nm (maximal formazan absorbance).
(§7) For each experimental condition, the mean optical density was calculated, allowing the determination of the percentage of living cells in comparison to the control.

MDA-MB-231 = assay: MTT test of overall cell growth, MDA-MB-231 breast cancer cells, normoxia or hypoxia; assay type: cell-based, human; conditions: for IC50: Homo sapiens; for Selectivity: MDA-MB-231, IC50 (normoxia)/IC50 (hypoxia 1% O2), if u.t.d., ratio of activity at 100 μM
Experimental: as §1, §2, §3, §4, §5, §6, §7

siHa = assay: MTT test of overall cell growth, SiHa cervix cancer cells, normoxia or hypoxia; assay type: cell-based, human; conditions: for IC50: Homo sapiens; for Selectivity: IC50 (normoxia)/IC50 (hypoxia 1% O2), if u.t.d., ratio of activity at 100 μM
Experimental: as §1, §2, §3, §4, §5, §6, §7

[1] = system: Human umbilical vein endothelial cells (HUVEC); assay: MTT test of overall cell growth, endothelial cells, normoxic or hypoxic conditions; assay type: cell-based; conditions: for IC50: Homo sapiens; for Selectivity: if u.t.d., ratio of activity at 100 μM
Experimental: as §1, §2, §3, §4, §5, §6, §7

U373 = assay: MTT test of overall cell growth, U373 glioma cells, normoxia or hypoxia; assay type: cell-based, human; conditions: for IC50: Homo sapiens, U373 MG; for Selectivity: U373, IC50 (normoxia)/IC50 (hypoxia 1% O2), if u.t.d., ratio of activity at 100 μM
Experimental: as §1, §2, §3, §4, §5, §6, §7

MCF-7 = assay: MTT test of overall cell growth, MCF-7 breast cancer cells, normoxia or hypoxia; assay type: cell-based, human; conditions: for IC50: Homo sapiens, MCF7; for Selectivity: MCF-7, IC50 (normoxia)/IC50 (hypoxia 1% O2), if u.t.d., ratio of activity at 100 μM
Experimental: as §1, §2, §3, §4, §5, §6, §7

PC3 = assay: MTT test of overall cell growth, PC3 prostate cancer cells, normoxia or hypoxia; assay type: cell-based, human; conditions: for IC50: Homo sapiens, PC-3; for Selectivity: PC3, IC50 (normoxia)/IC50 (hypoxia 1% O2), if u.t.d., ratio of activity at 100 μM
Experimental: as §1, §2, §3, §4, §5, §6, §7

[2] = hypoxia 1% O2, 72 h, read-out: IC50 (μM) Hypoxia 1% O2
[3] = normoxia, 72 h, read-out: IC50 (μM) Normoxia
[4] = MDA-MB-231, hypoxia 1% O2, 72 h, read-out: IC50 (μM) Hypoxia 1% O2
[5] = MDA-MB-231, normoxia, 72 h, read-out: IC50 (μM) Normoxia
[6] = 72 h, hypoxia 0.1% O2, 72 h, read-out: IC50 (μM) Hypoxia 0.1%
[7] = 72 h, hypoxia 1% O2, 72 h, read-out: IC50 (μM) Hypoxia 1%
[8] = 72 h, normoxia, 72 h, series compared with hypoxia 0.1%, read-out: IC50 (μM) Normoxia
[9] = 72 h, normoxia, 72 h, series compared with hypoxia 1%, read-out: IC50 (μM) Normoxia
[10] = IC50 (normoxia)/IC50 (hypoxia 0.1%)
[11] = IC50 (normoxia)/IC50 (hypoxia 1%)
[12] = U373, hypoxia 1% O2, 72 h, read-out: IC50 (μM) Hypoxia 1% O2
[13] = U373, normoxia, 72 h, read-out: IC50 (μM) Normoxia
[14] = MCF-7, hypoxia 1% O2, 72 h, read-out: IC50 (μM) Hypoxia 1% O2
[15] = MCF-7, normoxia, 72 h, read-out: IC50 (μM) Normoxia
[16] = PC3, hypoxia 1% O2, 72 h, read-out: IC50 (μM) Hypoxia 1% O2
[17] = PC3, normoxia, 72 h, read-out: IC50 (μM) Normoxia

C[C@H]1CC[C@H]2[C@H](C1)c1c(c3ccccc3c3nc4cc(C(=O)N5CCOCC5)ccc4nc13)OC2(C)C (racemic) [Compound 12]
IC50 (LoVo; [2]): 1.31 µM
IC50 (LoVo; [3]): 9.69 µM
Selectivity (LoVo): 7.38
IC50 (MDA-MB-231; [4]): 1.27 µM
IC50 (MDA-MB-231; [5]): 30.3 µM
Selectivity (MDA-MB-231): 23.81
IC50 (siHa; [2]): 1.13 µM
IC50 (siHa; [3]): 19.8 µM
Selectivity (siHa): 17.50
IC50 [1, 6]: 0.14 µM
IC50 [1, 7]: 0.4 µM
IC50 [1, 8]: 8.27 µM
IC50 [1, 9]: 5.65 µM
Selectivity [1, 10]: 58
Selectivity [1, 11]: 14
IC50 (U373; [12]): 0.14 µM
IC50 (U373; [13]): 10.6 µM
Selectivity (U373): 75.00
IC50 (MCF-7; [14]): 1.45 µM
IC50 (MCF-7; [15]): 8.07 µM
Selectivity (MCF-7): 5.56
IC50 (PC3; [16]): 1.31 µM
IC50 (PC3; [17]): 14.7 µM
Selectivity (PC3): 11.23

COc1ccc(CNC(=O)c2ccc3nc4c(nc3c2)c2c(c3ccccc34)OC(C)(C)[C@H]3CC[C@H](C)C[C@H]23)c(OC)c1 [Compound 16′]
IC50 (LoVo; [2]): 154 µM
IC50 (LoVo; [3]): 116 µM
Selectivity (LoVo): 0.76
IC50 (MDA-MB-231; [4]): 126 µM
IC50 (μM) Normoxia (MDA-MB-231; MDA-MB-231, normoxia, 72 h): u.t.d.
Selectivity (MDA-MB-231): >1.38^b
IC50 (siHa; [2]): 92.1 µM
Selectivity (siHa): >1.89^b
IC50 (μM) Normoxia (siHa; normoxia, 72 h): u.t.d.
IC50 [1, 6]: 0.21 µM
IC50 [1, 7]: 7.96 µM
IC50 [1, 8]: 16.7 µM
IC50 [1, 9]: 120 µM
Selectivity [1, 10]: 80
Selectivity [1, 11]: 15
IC50 (U373; [12]): 113 µM
IC50 (μM) Normoxia (U373; U373, normoxia, 72 h): u.t.d.
Selectivity (U373): >1.54^b
IC50 (MCF-7; [14]): 91.2 µM
IC50 (μM) Normoxia (MCF-7; MCF-7, normoxia, 72 h): u.t.d.
Selectivity (MCF-7): >1.91^b
IC50 (μM) Hypoxia 1% O2 (PC3; PC3, hypoxia 1% O2, 72 h): u.t.d.
IC50 (μM) Normoxia (PC3; PC3, normoxia, 72 h): u.t.d.

C[C@H]1CC[C@H]2[C@H](C1)c1c(c3ccccc3c3nc4ccc(C(=O)N5CCOCC5)cc4nc13)OC2(C)C (racemic) [Compound 12′]
IC50 (LoVo; [2]): 1.21 µM
IC50 (LoVo; [3]): 10.6 µM
Selectivity (LoVo): 8.75
IC50 (MDA-MB-231; [4]): 1.31 µM
IC50 (MDA-MB-231; [5]): 44.4 µM
Selectivity (MDA-MB-231): 33.85
IC50 (siHa; [2]): 1.17 µM
IC50 (siHa; [3]): 72.6 µM
Selectivity (siHa): 62.07
IC50 [1, 6]: 0.04 µM
IC50 [1, 7]: 0.14 µM
IC50 [1, 8]: 4.24 µM
IC50 [1, 9]: 4.14 µM
Selectivity [1, 10]: 105
Selectivity [1, 11]: 29
IC50 (U373; [12]): 0.61 µM
IC50 (U373; [13]): 9.08 µM
Selectivity (U373): 15.00
IC50 (MCF-7; [14]): 1.45 µM
IC50 (MCF-7; [15]): 11.3 µM
Selectivity (MCF-7): 7.78
IC50 (PC3; [16]): 1.41 µM
IC50 (PC3; [17]): 15.3 µM
Selectivity (PC3): 10.86

COC(=O)c1ccc2nc3c4c(c5ccccc5c3nc2c1)OC(C)(C)[C@H]1CC[C@H](C)C[C@H]41 [Compound 11]
IC50 (LoVo; [2]): 152 µM
IC50 (LoVo; [3]): 216 µM
Selectivity (LoVo): 1.42
IC50 (MDA-MB-231; [4]): 158 µM
IC50 (μM) Normoxia (MDA-MB-231; MDA-MB-231, normoxia, 72 h): u.t.d.
Selectivity (MDA-MB-231): >1.44^b
IC50 (siHa; [2]): 134 µM
Selectivity (siHa): >1.69^b
IC50 (μM) Normoxia (siHa; normoxia, 72 h): u.t.d.
IC50 [1, 6]: 65.8 µM
IC50 [1, 7]: 10.9 µM
IC50 [1, 9]: 149 µM
Selectivity [1, 10]: >3.4^b
Selectivity [1, 11]: 14
IC50 (μM) Normoxia ([1]; normoxia, 72 h, series compared with hypoxia 0.1%): u.t.d.
IC50 (U373; [12]): 141 µM
IC50 (μM) Normoxia (U373; U373, normoxia, 72 h): u.t.d.
Selectivity (U373): >1.61^b
IC50 (μM) Hypoxia 1% O2 (MCF-7; MCF-7, hypoxia 1% O2, 72 h): u.t.d.
IC50 (μM) Normoxia (MCF-7; MCF-7, normoxia, 72 h): u.t.d.
IC50 (μM) Hypoxia 1% O2 (PC3; PC3, hypoxia 1% O2, 72 h): u.t.d.
IC50 (μM) Normoxia (PC3; PC3, normoxia, 72 h): u.t.d.
